Data reported in patent publication US20250009886A1, “COMPOSITIONS FOR SMALL MOLECULE THERAPEUTIC AGENT COMPOUNDS” (Delpor, Inc., priority 2016, published 2025).
In brackets after ≈: the same amount, converted by molar mass.

Key:
[1] = cited from earlier work; for Solubility: of the organic acid
[2] = In vitro release of risperidone from devices loaded with various risperidone addition salts (Example 5); type: physicochemical; details: for Percent Risperidone Released at Day 15: cumulative percent of total risperidone released from device, two-fold molar excess of acid, PBS, 37° C., 15 days; for cumulative in vitro release of risperidone after 15 days (percent of total loaded drug): device in 100 mL PBS at 37° C., risperidone salt with two-fold molar excess of acid

| SMILES | Solubility [1] [mg/mL] | Percent Risperidone Released at Day 15 [2] [%] | cumulative in vitro release of risperidone after 15 days (percent of total loaded drug) [2] [%] | insolubility in water ([1]; neutral free base, 20-25° C.) |
| --- | --- | --- | --- | --- |
| O=C(O)C(O)c1ccccc1 (racemic) [rac-Mandelic] | 158.7 (≈ 1040 mM) |  |  |  |
| O=C(O)CNC(=O)c1ccccc1 [Hippuric acid] |  | 94 | 94 |  |
| O=C(O)CCc1ccc(O)cc1 [Hydroxyphenylpropionic acid, 3-(4-hydroxyphenyl) propionic acid] |  | 92 | 92 |  |
| Nc1ccc(C(=O)O)cc1 [PABA, 4-aminobenzoic acid] |  | 45 |  |  |
| Cc1nc2n(c(=O)c1CCN1CCC(c3noc4cc(F)ccc34)CC1)CCCC2 [Risperidone, risperidone, reference compound] |  |  |  | > 10000 volumes of water per volume of drug |
| O=C(O)CCCCCCCCC(=O)O [Sebacic acid, sebacic acid] |  | 55 |  |  |
| O=C(O)c1ccc(C(=O)O)cc1 [Terephthalic acid] |  | 2.6 | 2.6 |  |
| O=c1[nH]c(=O)c2[nH]c(=O)[nH]c2[nH]1 [Uric acid] |  | 16 | 16 |  |
| COc1cc(C(=O)O)ccc1O [Vinallic acid, vanillic acid] |  | 55 |  |  |
| O=C(O)/C=C/c1ccc(O)cc1 [p-Coumaric, p-coumaric acid] | 1 to 10 |  |  |  |
